Assays:
Assay type in all cases: in vivo
[1] = test system: larva of Spodoptera litura; assay: Test against larva of Spodoptera litura (leaf dip, sweet potato leaves); settings: 20 ppm concentration of the active component; third instar larvae; counted after 7 days; 25° C.
In short: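 Sweet potato leaves were dipped in emulsified compound diluted with water, air-dried, and given to 10 third-instar larvae per dish at 25° C, with fresh leaves added on days 2 and 4. Mortality was counted after 7 days and averaged over 2 dishes.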

[2] = test system: Myzus persicae resistant to organophosphorous agents and carbamates; assay: Test against Myzus persicae resistant to organophosphorous agents and carbamates (spray on eggplant seedlings); settings: 100 ppm concentration of the effective component; 7 days after spraying; green house of 28° C.
Method: About 30 bred Myzus persicae resistant to organophosphorous agents and carbamates were inoculated per 1 seedling of eggplant planted in a vinyl pot of 6 cm diameter. One day after the inoculation, a sufficient amount of a diluted aqueous solution of a prescribed concentration of an active compound prepared as mentioned above, was sprayed by using a spray gun. After spraying it was placed in a green house of 28° C. and the rate of death was calculated 7 days after the spraying. Test was repeated twice.

[3] = test system: larva of Cnaphalocrocis medinalis Guenee; assay: Test against larva of Cnaphalocrocis medinalis Guenee (sprayed paddy rice foliage); settings: 20 ppm concentration of the active component; second instar larvae; counted after 7 days; 25° C.
In short: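 Potted rice (Tamanishiki) sprayed with aqueous dilutions of compound at the prescribed concentration; air-dried leaf pieces placed in dishes with five 2nd-instar larvae at 25° C, fresh treated foliage added at days 2 and 4. Mortality counted at day 7, averaged over 2 dishes.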

Row | SMILES | controlling effect, rate of death [1] [%] | controlling effect, rate of death [2] [%] | controlling effect, rate of death [3] [%]
1 | CCSCC(C)NC(=O)c1c(Cl)cccc1C(=O)Nc1ccc(Cn2nc(C(F)(F)F)nc2C(F)(F)F)cc1C (stereo not drawn) [compound 146] | 100 | 100 | 100
2 | Cc1cc(Cn2cc(C(F)(F)C(F)(F)F)c(C(F)(F)C(F)(F)C(F)(F)F)n2)ccc1NC(=O)c1cccc(I)c1C(=O)N[C@@H](C)C[S+](C)[O-] (stereo partly drawn) [compound 920] | 100 | 100 | 100
3 | CSCC(C)NC(=O)c1c(I)cccc1C(=O)Nc1ccc(Cn2nc(C(F)(F)F)nc2C(F)F)cc1C (stereo not drawn) [compound 239] |  | 100 | 
4 | CSCC(C)(C)NC(=O)c1c(Br)cccc1C(=O)Nc1ccc(Cn2nc(C(F)(F)F)nc2C(F)(F)F)cc1C [compound 174] | 100 | 100 | 100
5 | Cc1cc(C(C)n2nc(C(F)(F)F)nc2C(F)(F)F)ccc1NC(=O)c1cccc(I)c1C(=O)N[C@@H](C)C[S+](C)[O-] (stereo partly drawn) [compound 572] | 100 | 100 | 100
6 | Cc1cc(C(C)n2nc(C(F)(F)F)nc2C(F)(F)F)ccc1NC(=O)c1cccc(Cl)c1C(=O)N[C@@H](C)C[S+](C)[O-] (stereo partly drawn) [compound 569] |  | 100 | 
7 | Cc1cc(Cn2nc(C(F)(F)F)nc2C(F)F)ccc1NC(=O)c1cccc(I)c1C(=O)NC(C)CS(C)(=O)=O (stereo not drawn) [compound 243] |  | 100 | 
8 | Cc1cc(Cn2nc(C(F)C(F)(F)F)nc2C(F)(F)F)ccc1NC(=O)c1cccc(Cl)c1C(=O)N[C@@H](C)C[S+](C)[O-] (stereo partly drawn) [compound 797] |  | 100 | 
9 | CSC[C@H](C)NC(=O)c1c(I)cccc1C(=O)Nc1ccc(C(C)n2nc(C(F)(F)F)nc2C(F)(F)F)cc1C (stereo partly drawn) [compound 571] | 100 |  | 100
10 | Cc1cc(Cn2nc(C(F)(F)F)cc2C(F)(F)F)ccc1NC(=O)c1cccc([N+](=O)[O-])c1C(=O)N[C@@H](C)C[S+](C)[O-] (stereo partly drawn) [compound 544] | 100 |  | 100
11 | Cc1cc(Cn2cc(C(F)(F)C(F)(F)C(F)(F)F)c(C(F)(F)C(F)(F)F)n2)ccc1NC(=O)c1cccc(I)c1C(=O)N[C@@H](C)CS(C)(=O)=O [compound 662] | 100 |  | 100
12 | Cc1cc(Cn2nc(C(F)(F)F)nc2C(F)(F)F)ccc1NC(=O)c1cccc([N+](=O)[O-])c1C(=O)N[C@@H](C)C[S+](C)[O-] (stereo partly drawn) [compound 547] | 100 |  | 100
13 | CSCC(C)NC(=O)c1c(I)cccc1C(=O)Nc1ccc(-c2cc(OC(F)F)n(C(F)F)n2)cc1C (stereo not drawn) [compound 518] | 100 |  | 100
14 | CSCC(C)NC(=O)c1c(Br)cccc1C(=O)Nc1ccc(Cn2nc(C(F)(F)F)cc2C(F)(F)F)cc1C (racemic) [compound 48] | 100 |  | 100
15 | CSCC(C)NC(=O)c1c(OS(C)(=O)=O)cccc1C(=O)Nc1ccc(Cn2nc(C(F)(F)F)nc2C(F)(F)F)cc1C (stereo not drawn) [compound 251] | 100 |  | 100
16 | Cc1cc(Cn2nc(C(F)(F)F)cc2C(F)(F)F)ccc1NC(=O)c1cccc(I)c1C(=O)NC(C)C[S+](C)[O-] (mixture of isomers) [compound 88] | 100 |  | 100

Row | SMILES | controlling effect, rate of death [1] [%] | controlling effect, rate of death [2] [%] | controlling effect, rate of death [3] [%]
17 | Cc1cc(Cn2nc(C(F)(F)F)nc2C(F)(F)F)ccc1NC(=O)c1cccc(I)c1C(=O)NC(C)C[S+](C)[O-] (stereo not drawn) [compound 216] | 100 |  | 100
18 | CSCC(C)NC(=O)c1c(Br)cccc1C(=O)Nc1ccc(Cn2nc(C(F)(F)F)nc2C(F)(F)F)cc1C (stereo not drawn) [compound 178] |  | 100 | 
19 | CSCC(C)NC(=O)c1c(Cl)cccc1C(=O)Nc1ccc(Cn2nc(C(F)(F)F)cc2C(F)(F)F)cc1C (racemic) [compound 11] | 100 |  | 100
20 | Cc1cc(Cn2nc(C(F)(F)C(F)(F)F)nc2C(F)(F)F)ccc1NC(=O)c1cccc(Cl)c1C(=O)NC(C)C[S+](C)[O-] (stereo not drawn) [compound 155] | 100 |  | 100
21 | Cc1cc(Cn2nc(C(F)(F)F)nc2C(F)(F)F)ccc1NC(=O)c1cccc(Cl)c1C(=O)NC(C)C[S+](C)[O-] (stereo not drawn) [compound 142] | 100 |  | 100
22 | CSCC(C)NC(=O)c1c(I)cccc1C(=O)Nc1ccc(-n2nc(C(F)(F)F)cc2C(F)(F)F)cc1C (stereo not drawn) [compound 414] | 100 |  | 100
23 | Cc1cc(Cn2nc(C(F)(F)C(F)(F)F)nc2C(F)(F)F)ccc1NC(=O)c1cccc(I)c1C(=O)NC(C)CS(C)(=O)=O (stereo not drawn) [compound 231] | 100 |  | 100
24 | Cc1cc(-n2cc(C(F)(F)C(F)(F)F)cn2)ccc1NC(=O)c1cccc(I)c1C(=O)NC(C)(C)CS(C)(=O)=O [compound 448] | 100 |  | 100
25 | Cc1cc(Cn2nc(C(F)(F)C(F)(F)F)nc2C(F)(F)F)ccc1NC(=O)c1cccc(Cl)c1C(=O)NC(C)(C)C[S+](C)[O-] (stereo not drawn) [compound 150] | 100 |  | 100
26 | Cc1cc(Cn2nc(C(F)(F)F)cc2C(F)(F)F)ccc1NC(=O)c1cccc(Br)c1C(=O)NC(C)CS(C)(=O)=O (stereo not drawn) [compound 53] | 100 |  | 100
27 | CSCC(C)NC(=O)c1c(Cl)cccc1C(=O)Nc1ccc(Cn2nc(C(F)(F)F)cc2C(F)(F)F)cc1C (stereo not drawn) [compound 12] | 100 |  | 100
28 | Cc1cc(Cn2cc(C(F)(F)C(F)(F)C(F)(F)C(F)(F)F)c(C(F)(F)F)n2)ccc1NC(=O)c1cccc(Cl)c1C(=O)N[C@@H](C)CS(C)(=O)=O [compound 647] | 100 |  | 100
29 | CCSCC(C)NC(=O)c1c(I)cccc1C(=O)Nc1ccc(Cn2nc(C(F)(F)F)cc2C(F)(F)F)cc1C (stereo not drawn) [compound 91] | 100 |  | 100
30 | Cc1cc(Cn2cc(C(F)(F)C(F)(F)C(F)(F)F)c(C(F)(F)C(F)(F)C(F)(F)F)n2)ccc1NC(=O)c1cccc(Cl)c1C(=O)N[C@@H](C)CS(C)(=O)=O [compound 669] | 100 |  | 100
31 | CSC[C@H](C)NC(=O)c1c(Cl)cccc1C(=O)Nc1ccc(Cn2cc(C(F)(F)C(F)(F)C(F)(F)F)c(C(F)(F)C(F)(F)C(F)(F)F)n2)cc1C [compound 667] | 100 |  | 100
32 | Cc1cc(Cn2nc(C(F)(F)F)cc2C(F)(F)F)ccc1NC(=O)c1cccc(I)c1C(=O)NC(C)(C)CS(C)(=O)=O [compound 84, N^1-{4-[3,5-bis(trifluoromethyl)-1H-pyrazol-1-ylmethyl]-2-methylphenyl}-3-iodo-N^2-(2-methanesulfonyl-1,1-dimethylethyl)phthalamide] | 100 |  | 100

From US7674807B2, “Heterocycle-substituted n-phenyl-phthalamide derivatives, related compounds and their use as insecticides” (Bayer CropScience AG, priority 2004, dated 2010)
